Data: patent publication US20240261273A1 (PRILENIA NEUROTHERAPEUTICS LTD., priority 2021, published 2024)

Key:
[1] = test system: optic nerve head astrocytes (ONHA); assay: ONHA cell viability after tBHP oxidative stress, MTT assay; conditions: 16 h, then tBHP 40 μM 6 h
Method: Cell viability was assessed using the MTT colorimetric assay.

[2] = molecular target: Sigma-1 Receptor (S1R) (Homo sapiens (Human), UniProt Q99720); assay: In-vitro binding assay, Sigma-1 receptor (Eurofins Panlabs); conditions: Cheng Prusoff equation
[3] = test system: optic nerve head astrocytes (ONHA); assay: ONHA oxidative stress (ROS) after tBHP, DCF fluorescence; type: cell-based, rat; conditions: 0.05 μM alone, 16 h, then tBHP 80 μM 6 h
Method: CM-H2DCFDA is cleaved to form non-fluorescent H2DCF, which is then oxidized to form the fluorescent DCF. DCF levels are indicative of ROS. Cell viability was also assessed using the commonly used colorimetric MTT assay.

[4] = test system: B104 neuroblastoma cells; conditions: in-situ ELISA; Geva et al. 2016; cited from earlier work
[5] = test system: RGCs; conditions: two experimental glaucoma models, elevated IOP

Sequence of Sigma-1 Receptor (S1R) (Q99720 whole entry, species assumed): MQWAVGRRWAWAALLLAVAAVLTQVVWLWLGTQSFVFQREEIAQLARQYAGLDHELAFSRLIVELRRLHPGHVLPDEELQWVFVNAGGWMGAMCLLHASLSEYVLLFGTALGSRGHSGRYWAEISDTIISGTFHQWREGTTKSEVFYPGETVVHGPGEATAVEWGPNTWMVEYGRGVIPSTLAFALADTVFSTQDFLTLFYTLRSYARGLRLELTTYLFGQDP

CCCN1CC[C@@H](c2cccc(S(C)(=O)=O)c2)[C@@H](O)C1 [Compound 4]
increase in cell viability ([1]; 0.1 μM alone): neither pridopidine (0.05 μM) nor compound 4 (0.1 μM) have any effect | S1R Ki [2]: high affinity

CCCN1CCC(O)(c2cccc(S(C)(=O)=O)c2)CC1 [Compound 1]
reduction of oxidative stress (DCF fluorescence) [3]: 5% | increase in cell viability ([1]; 0.01 μM alone): neither pridopidine (0.05 μM) nor compound 1 (0.01 μM) have any effect | S1R Ki [2]: high affinity

CCCN1CCC(c2cccc(S(C)(=O)=O)c2)CC1 [Pridopidine, 4-(3-(Methylsulfonyl)phenyl)-1-propylpiperidine]
reduction of oxidative stress (DCF fluorescence) [3]: 30% | BDNF secretion in rat neuroblastoma cells [4]: dose dependent increase | effect on RGCs [5]: neuroprotective effect | relation of protective effect to IOP [5]: not mediated by lowering IOP
